This series has as its system bone marrow. Nature of the series: Bone marrow depletion and recovery after i.v. treatment (sternum sections). Format: in vivo, rat. The note with it: i.v. 20 mg/kg. How it is done: All tissues were processed to FFPE according to routine procedures and following fixation, rat sternum was decalcified in Citrate/EDTA buffer for 5 days, with buffer exchange every 24 h. Sections were cut at 3 μm using a microtome. p21 and cleaved Caspase-3 immunohistochemistry was performed on a Ventana Discovery XT automated immunostainer using the OmniMap anti Mouse or Rabbit HRP secondary reagent and the ChromoMap DAB chromogen system (Ventana/Roche Diagnostics GmbH, Mannheim, Germany). Antigen retrieval was done by using Cell Conditioning Discovery CC1 (Ventana/Roche Diagnostics) at mild (95° 8 min+100° 20 min, for cleaved Caspase-3) or standard (95° 8 min+100° 36 min, for p21) conditions. The primary antibody was applied manually at the desired dilution in Dako antibody diluent, followed by incubation for 1 hour at room temperature. Corresponding negative controls were incubated with AbD only. Counterstaining of sections was done using hematoxylin (Ventana/Roche Diagnostics). After the automated staining run, slides were dehydrated in a graded series of ethanol, cleared in xylene and mounted with Pertex mounting medium.

With `COc1ncc(-c2nc3c(n2C(C)C)[C@H](c2ccc(Cl)cc2)N(c2cc(Cl)cn(C)c2=O)C3=O)c(OC)n1` [Compound A, (S)-5-(5-Chloro-1-methyl-2-oxo-1,2-dihydro-pyridin-3-yl)-6-(4-chloro-phenyl)-2-(2,4-dimethoxy-pyrimidin-5-yl)-1-isopropyl-5,6-dihydro-1H-pyrrolo[3,4-d]imidazol-4-one], under “14 days post treatment”, the bone marrow state result is on record as “severe bone marrow depletion”. Also, the bone marrow recovery result (day 22) is on record as “partial recovery”.

These data come from patent US11419870B2, “Intermittent dosing of MDM2 inhibitor” (Novartis AG, priority 2014, dated 2022).
